US8247211B2, “Glycopeptide antibiotics” (American Cyanamid Company, priority 2001, dated 2012)
≈ marks a conversion by molar mass, not a printed value.

Experiments:
Assay in all cases: In vitro antibacterial evaluation: minimum inhibitory concentration (MIC), broth dilution method
Assay type in all cases: cell-based
Conditions in all cases: broth dilution, 18 hours at 35° C.
Enterococcus sp. = system: Enterococcus sp.
In short: (§1)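 An MIC is reported for each organism as the least concentration giving inhibition, using broth dilution over 64-0.06 μg/mL with a 5×10^5 CFU/mL inoculum.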

Staphylococcus sp. = system: Staphylococcus sp.
In short: as §1

Streptococcus sp. = system: Streptococcus sp.
In short: as §1

Escherichia coli = system: Escherichia coli

## CC(c1ccccc1)C1NC(=O)CNC(=O)C(CO)NC(=O)C(C(O)C2CNC(=N)N2C2OC(CO)C(O)C(O)C2O)NC(=O)C(C(O)C2CNC(=N)N2)NC(=O)C(Cc2ccc3oc(-c4cccc(F)c4)nc3c2)NC1=O (stereo not drawn) [Example 30, Cyclo[3-[2-(3-fluorophenyl)-1,3-benzoxazol-5-yl]alanyl-3-(2-iminoimidazolidin-4-yl)seryl-3-(3-hexopyranosyl-2-iminoimidazolidin-4-yl)serylserylglycyl-β-methylphenylalanyl]]
Enterococcus sp.; Enterococcus avium (GC 4558)
  MIC Enterococcus avium (GC 4558): 16 µg/mL (≈ 14.7 µM)
Enterococcus sp.; Enterococcus faecalis (ATCC 29212)
  MIC Enterococcus faecalis (ATCC 29212): 64 µg/mL (≈ 58.7 µM)
Enterococcus sp.; Enterococcus faecalis (GC 2242)
  MIC Enterococcus faecalis (GC 2242): 32 µg/mL (≈ 29.4 µM)
Enterococcus sp.; Enterococcus faecalis (GC 2691)
  MIC Enterococcus faecalis (GC 2691): 32 µg/mL (≈ 29.4 µM)
Enterococcus sp.; Enterococcus faecalis (GC 3059)
  MIC Enterococcus faecalis (GC 3059): 64 µg/mL (≈ 58.7 µM)
Enterococcus sp.; Enterococcus faecalis (GC 4552)
  MIC Enterococcus faecalis (GC 4552): 64 µg/mL (≈ 58.7 µM)
Enterococcus sp.; Enterococcus faecalis (GC 4553)
  MIC Enterococcus faecalis (GC 4553): 16 µg/mL (≈ 14.7 µM)
Enterococcus sp.; Enterococcus faecalis (GC 4554)
  MIC Enterococcus faecalis (GC 4554): 64 µg/mL (≈ 58.7 µM)
Enterococcus sp.; Enterococcus faecalis (GC 6189)
  MIC Enterococcus faecalis (GC 6189): 32 µg/mL (≈ 29.4 µM)
Enterococcus sp.; Enterococcus faecium (GC 2243)
  MIC Enterococcus faecium (GC 2243): 32 µg/mL (≈ 29.4 µM)
Enterococcus sp.; Enterococcus faecium (GC 4556)
  MIC Enterococcus faecium (GC 4556): 64 µg/mL (≈ 58.7 µM)
Enterococcus sp.; Enterococcus faecium (GC 4557)
  MIC Enterococcus faecium (GC 4557): 8 µg/mL (≈ 7.34 µM)
Enterococcus sp.
  MIC Enterococcus avium (GC 4558): 16 µg/mL (≈ 14.7 µM)
  MIC Enterococcus faecalis (ATCC 29212): 64 µg/mL (≈ 58.7 µM)
  MIC Enterococcus faecalis (GC 2242): 32 µg/mL (≈ 29.4 µM)
  MIC Enterococcus faecalis (GC 2691): 32 µg/mL (≈ 29.4 µM)
  MIC Enterococcus faecalis (GC 3059): 64 µg/mL (≈ 58.7 µM)
  MIC Enterococcus faecalis (GC 4552): 64 µg/mL (≈ 58.7 µM)
  MIC Enterococcus faecalis (GC 4553): 16 µg/mL (≈ 14.7 µM)
  MIC Enterococcus faecalis (GC 4554): 64 µg/mL (≈ 58.7 µM)
  MIC Enterococcus faecalis (GC 6189): 32 µg/mL (≈ 29.4 µM)
  MIC Enterococcus faecium (GC 2243): 32 µg/mL (≈ 29.4 µM)
  MIC Enterococcus faecium (GC 4556): 64 µg/mL (≈ 58.7 µM)
  MIC Enterococcus faecium (GC 4557): 8 µg/mL (≈ 7.34 µM)
Staphylococcus sp.; strain GC 4543
  MIC Staphylococcus aureus-SMITH (GC 4543): 8 µg/mL (≈ 7.34 µM)
Staphylococcus sp.; strain GC 4546
  MIC Staphylococcus haemolyticus (GC 4546): 4 µg/mL (≈ 3.67 µM)
Staphylococcus sp.; strain GC 4547
  MIC Coagulase Negative Staphylococcus (GC 4547): 8 µg/mL (≈ 7.34 µM)
Staphylococcus sp.; strain GC 4548
  MIC Coagulase Negative Staphylococcus (GC 4548): 4 µg/mL (≈ 3.67 µM)
Staphylococcus sp.; strain GC 4549
  MIC Coagulase Negative Staphylococcus (GC 4549): 16 µg/mL (≈ 14.7 µM)
Staphylococcus sp.; strain GC 4551
  MIC Coagulase Negative Staphylococcus (GC 4551): 8 µg/mL (≈ 7.34 µM)
Staphylococcus sp.; strain GC 6257
  MIC Coagulase Negative Staphylococcus (GC 6257): 4 µg/mL (≈ 3.67 µM)
Staphylococcus sp.; strain SMITH GC 4543
  MIC Staphylococcus aureus-SMITH (GC 4543): 8 µg/mL (≈ 7.34 µM)
Streptococcus sp.; Streptococcus agalactiae (GC 4564)
  MIC Streptococcus agalactiae (GC 4564): 8 µg/mL (≈ 7.34 µM)
Streptococcus sp.; Streptococcus pneumoniae (ATCC 6301)
  MIC Streptococcus pneumoniae (ATCC 6301): 8 µg/mL (≈ 7.34 µM)
Streptococcus sp.; Streptococcus pneumoniae (GC 1894)
  MIC Streptococcus pneumoniae (GC 1894): 16 µg/mL (≈ 14.7 µM)
Streptococcus sp.; Streptococcus pneumoniae (GC 4565)
  MIC Streptococcus pneumoniae (GC 4565): 16 µg/mL (≈ 14.7 µM)
Streptococcus sp.; Streptococcus pyogenes (GC 4563)
  MIC Streptococcus pyogenes (GC 4563): 4 µg/mL (≈ 3.67 µM)
Streptococcus sp.
  MIC Streptococcus agalactiae (GC 4564): 8 µg/mL (≈ 7.34 µM)
  MIC Streptococcus pneumoniae (ATCC 6301): 8 µg/mL (≈ 7.34 µM)
  MIC Streptococcus pneumoniae (GC 1894): 16 µg/mL (≈ 14.7 µM)
  MIC Streptococcus pneumoniae (GC 4565): 16 µg/mL (≈ 14.7 µM)
  MIC Streptococcus pyogenes (GC 4563): 4 µg/mL (≈ 3.67 µM)
Escherichia coli
  MIC Escherichia coli (ATCC 25922): 32 µg/mL (≈ 29.4 µM)
  MIC Escherichia coli (GC 4559): 32 µg/mL (≈ 29.4 µM)
  MIC Escherichia coli (GC 4560): 8 µg/mL (≈ 7.34 µM)
